These results are taken from ChEMBL document CHEMBL1125871, “Inhibitors of cholesterol biosynthesis. 4. trans-6-[2-(substituted-quinolinyl)ethenyl/ethyl]tetrahydro-4-hydroxy-2 H-pyran-2-ones, a novel series of HMG-CoA reductase inhibitors” (J Med Chem, 1991).

What is called IC50 is the point on the concentration scale where inhibition reaches its midpoint. Usually Inhibition stands for the drop in the measured response relative to a control, in per cent.

The species entered for one assay is Rattus norvegicus. The assay is described as follows: Compound was tested for its Cholesterol Synthesis Inhibition ability in rats. It counts as functional, organism-based.
On to `Cc1cnc2ccccc2c1/C=C/[C@@H]1C[C@@H](O)CC(=O)O1`, for which the IC50 was more than 1 µM.

Regarding `COc1ccc2nc(C(C)C)c(/C=C/[C@@H]3C[C@@H](O)CC(=O)O3)c(-c3ccc(F)cc3)c2c1`, 0.013 µM corresponded to half-maximal inhibition (IC50).

`CC(C)c1c(/C=C/[C@@H]2C[C@@H](O)CC(=O)O2)c(-c2ccc(F)cc2)c2cc(F)ccc2[n+]1[O-]` gave an IC50 of 0.018 µM.

`CN(C)c1nc2ccccc2c(-c2ccc(F)cc2)c1/C=C/[C@@H]1C[C@@H](O)CC(=O)O1` returned an IC50 of 0.047 µM.

Consider `CC(C)c1nc2ccccc2c(-c2ccc(F)cc2)c1CC[C@@H]1C[C@@H](O)CC(=O)O1`, for which the IC50 is more than 1 µM.

In turn, `CC(C)c1nc2ccc(Cl)cc2c(-c2ccc(F)cc2)c1/C=C/[C@@H]1C[C@@H](O)CC(=O)O1` returned an IC50 of 0.032 µM.

In turn, `CC(C)c1nc2ccccc2c(-c2ccc(F)cc2)c1/C=C/[C@@H]1C[C@@H](O)CC(=O)O1` showed an IC50 of 0.042 µM.

In the case of `Cc1nc2ccc(Cl)cc2c(-c2ccc(F)cc2)c1/C=C/[C@@H]1C[C@@H](O)CC(=O)O1`, the IC50 came to 0.4 µM.

Turning to `CC(C)c1nc2ccc(F)cc2c(-c2ccc(F)cc2)c1/C=C/[C@@H]1C[C@@H](O)CC(=O)O1` (stereo in doubt; 8d), the IC50 was found to be 0.05 µM.

Compound `CC[C@H](C)C(=O)O[C@H]1C[C@@H](C)C=C2C=C[C@H](C)[C@H](CC[C@@H]3C[C@@H](O)CC(=O)O3)[C@H]21` [LOVASTATIN] displayed an IC50 of 0.025 µM.

`CC[C@H](C)C(=O)O[C@H]1CCC=C2C=C[C@H](C)[C@H](CC[C@@H]3C[C@@H](O)CC(=O)O3)[C@H]21` [MEVASTATIN] returned an IC50 of 0.03 µM.

The species entered for another assay is Rattus norvegicus. The assay is described as follows: Compound was evaluated for the percentage of acute inhibition of cholesterol synthesis (AICS) in male rats through peroral rout. It counts as functional. More on the design: concentration or dose not given beside the values.
Compound `Cc1cnc2ccccc2c1/C=C/[C@@H]1C[C@@H](O)CC(=O)O1` came in with an Inhibition of 42%.

`COc1ccc2nc(C(C)C)c(/C=C/[C@@H]3C[C@@H](O)CC(=O)O3)c(-c3ccc(F)cc3)c2c1` displayed an Inhibition of 60%.

`CC(C)c1c(/C=C/[C@@H]2C[C@@H](O)CC(=O)O2)c(-c2ccc(F)cc2)c2cc(F)ccc2[n+]1[O-]` returned an Inhibition of 47%.

The compound `CN(C)c1nc2ccccc2c(-c2ccc(F)cc2)c1/C=C/[C@@H]1C[C@@H](O)CC(=O)O1` gave an Inhibition of 52%.

Compound `CC(C)c1nc2ccc(Cl)cc2c(-c2ccc(F)cc2)c1/C=C/[C@@H]1C[C@@H](O)CC(=O)O1` displayed an Inhibition of 61%.

Turning to `CC(C)c1nc2ccccc2c(-c2ccc(F)cc2)c1/C=C/[C@@H]1C[C@@H](O)CC(=O)O1`, the Inhibition was 70%.

Compound `Cc1nc2ccc(Cl)cc2c(-c2ccc(F)cc2)c1/C=C/[C@@H]1C[C@@H](O)CC(=O)O1` registered an Inhibition of 18%.

`CC(C)c1nc2ccc(F)cc2c(-c2ccc(F)cc2)c1/C=C/[C@@H]1C[C@@H](O)CC(=O)O1` (stereo in doubt; 8d): the Inhibition turned out to be 68%.

`CC(C)c1nc2ccc(F)cc2c(-c2ccc(F)cc2)c1/C=C/[C@@H]1C[C@@H](O)CC(=O)O1` (stereo in doubt; 17) showed an Inhibition of 69%.

For the compound `CC[C@H](C)C(=O)O[C@H]1C[C@@H](C)C=C2C=C[C@H](C)[C@H](CC[C@@H]3C[C@@H](O)CC(=O)O3)[C@H]21` [LOVASTATIN], the Inhibition is reported as 72%.

Regarding `CC[C@H](C)C(=O)O[C@H]1CCC=C2C=C[C@H](C)[C@H](CC[C@@H]3C[C@@H](O)CC(=O)O3)[C@H]21` [MEVASTATIN], the Inhibition was found to be 36%.

The target of a further assay is T1, 3-hydroxy-3-methylglutaryl-coenzyme A reductase (Rattus norvegicus, UniProt P51639).
T1 sequence (P51639 whole entry): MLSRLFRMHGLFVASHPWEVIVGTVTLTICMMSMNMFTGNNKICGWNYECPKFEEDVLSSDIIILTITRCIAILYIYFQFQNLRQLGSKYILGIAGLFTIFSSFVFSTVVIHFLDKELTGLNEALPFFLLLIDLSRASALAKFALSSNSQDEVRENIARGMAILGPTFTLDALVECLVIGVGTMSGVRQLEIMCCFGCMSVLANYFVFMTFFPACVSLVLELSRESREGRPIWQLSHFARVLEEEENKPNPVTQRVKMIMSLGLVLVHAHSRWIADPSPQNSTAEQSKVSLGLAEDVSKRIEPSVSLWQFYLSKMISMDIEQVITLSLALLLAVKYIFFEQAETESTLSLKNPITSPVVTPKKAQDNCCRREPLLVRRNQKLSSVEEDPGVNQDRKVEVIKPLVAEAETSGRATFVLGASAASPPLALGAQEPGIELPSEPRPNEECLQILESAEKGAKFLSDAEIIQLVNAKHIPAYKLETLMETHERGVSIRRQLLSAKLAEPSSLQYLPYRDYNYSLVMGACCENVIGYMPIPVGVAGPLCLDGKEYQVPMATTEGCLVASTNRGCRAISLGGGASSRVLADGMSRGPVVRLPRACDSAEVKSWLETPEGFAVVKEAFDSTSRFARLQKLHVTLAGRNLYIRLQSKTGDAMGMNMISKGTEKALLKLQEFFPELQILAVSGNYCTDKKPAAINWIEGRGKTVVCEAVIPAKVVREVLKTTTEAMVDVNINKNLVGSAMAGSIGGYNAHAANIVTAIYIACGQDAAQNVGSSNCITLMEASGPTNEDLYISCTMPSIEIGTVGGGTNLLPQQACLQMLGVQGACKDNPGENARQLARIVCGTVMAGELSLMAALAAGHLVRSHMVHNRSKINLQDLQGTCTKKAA
The assay is described as follows: Compound was evaluated for the inhibition of HMG-CoA reductase (COR) in rats.
`COc1ccc2nc(C(C)C)c(/C=C/[C@@H]3C[C@@H](O)CC(=O)O3)c(-c3ccc(F)cc3)c2c1` came in with an IC50 of 0.053 µM.

As for `CC(C)c1c(/C=C/[C@@H]2C[C@@H](O)CC(=O)O2)c(-c2ccc(F)cc2)c2cc(F)ccc2[n+]1[O-]`, inhibition was half-maximal at 0.079 µM (IC50).

In the case of `CN(C)c1nc2ccccc2c(-c2ccc(F)cc2)c1/C=C/[C@@H]1C[C@@H](O)CC(=O)O1`, the IC50 stood at 0.35 µM.

On to `CC(C)c1nc2ccc(Cl)cc2c(-c2ccc(F)cc2)c1/C=C/[C@@H]1C[C@@H](O)CC(=O)O1`, for which the IC50 amounted to 0.025 µM.

In turn, `CC(C)c1nc2ccccc2c(-c2ccc(F)cc2)c1/C=C/[C@@H]1C[C@@H](O)CC(=O)O1` showed an IC50 of 0.032 µM.

Turning to `Cc1nc2ccc(Cl)cc2c(-c2ccc(F)cc2)c1/C=C/[C@@H]1C[C@@H](O)CC(=O)O1`, it took 0.72 µM to reach half-maximal inhibition (IC50).

Take `CC(C)c1nc2ccc(F)cc2c(-c2ccc(F)cc2)c1/C=C/[C@@H]1C[C@@H](O)CC(=O)O1` (stereo in doubt; 8d): half-maximal inhibition (IC50) was put at 0.2 µM.

With `CC[C@H](C)C(=O)O[C@H]1C[C@@H](C)C=C2C=C[C@H](C)[C@H](CC[C@@H]3C[C@@H](O)CC(=O)O3)[C@H]21` [LOVASTATIN], the IC50 came out at 0.028 µM.

The species entered for the next assay is Rattus norvegicus. The assay is described as follows: (§1) Compound was tested for its relative Cholesterol Synthesis Inhibition as compared to compactin in rats. It counts as functional.
Take `Cc1cnc2ccccc2c1/C=C/[C@@H]1C[C@@H](O)CC(=O)O1`: the Relative inhibition was less than 1.

`COc1ccc2nc(C(C)C)c(/C=C/[C@@H]3C[C@@H](O)CC(=O)O3)c(-c3ccc(F)cc3)c2c1` displayed a Relative inhibition of 100.

Turning to `CN(C)c1nc2ccccc2c(-c2ccc(F)cc2)c1/C=C/[C@@H]1C[C@@H](O)CC(=O)O1`, the Relative inhibition turned out to be 13.2.

The compound `CC(C)c1nc2ccccc2c(-c2ccc(F)cc2)c1CC[C@@H]1C[C@@H](O)CC(=O)O1` registered a Relative inhibition of less than 1.

For the compound `CC(C)c1nc2ccc(Cl)cc2c(-c2ccc(F)cc2)c1/C=C/[C@@H]1C[C@@H](O)CC(=O)O1`, the Relative inhibition is 100.

Consider `CC(C)c1nc2ccccc2c(-c2ccc(F)cc2)c1/C=C/[C@@H]1C[C@@H](O)CC(=O)O1`, for which the Relative inhibition is on record as 75.8.

Regarding `Cc1nc2ccc(Cl)cc2c(-c2ccc(F)cc2)c1/C=C/[C@@H]1C[C@@H](O)CC(=O)O1`, the Relative inhibition is 6.3.

In turn, `CC(C)c1nc2ccc(F)cc2c(-c2ccc(F)cc2)c1/C=C/[C@@H]1C[C@@H](O)CC(=O)O1` (stereo in doubt; 8d) registered a Relative inhibition of 77.6.

In the case of `CC[C@H](C)C(=O)O[C@H]1C[C@@H](C)C=C2C=C[C@H](C)[C@H](CC[C@@H]3C[C@@H](O)CC(=O)O3)[C@H]21` [LOVASTATIN], the Relative inhibition was found to be 118.

System in another assay: not listed separately
The description is as §1. It counts as functional.
`CC(C)c1c(/C=C/[C@@H]2C[C@@H](O)CC(=O)O2)c(-c2ccc(F)cc2)c2cc(F)ccc2[n+]1[O-]` displayed a Relative inhibition of 112.
